In US9056899B2 (priority 2008, dated 2015):
Values after ≈ are worked out from the molar mass of the structure shown. Where two headings read alike, the source gives them in different places.

Tests used:
[1] = test system: BW25113 and gene knockouts; details: cited from earlier work
BW25113 gene knockouts = details: cited from earlier work
E. coli EMG2 [2] = assay: Survival of mice infected with bacteria; format: in vivo; details: 8.8×10^7 CFU/mouse i.p.; 1 hour later i.v. 0.2 mg/kg ofloxacin with or without 10^9 PFU/mouse phage; observed 5 days
Protocol: After 1 hour, the mice received either no treatment or intravenous treatment with no phage, unmodified phage φunmod, or engineered phage φlexA3 with 0.2 mg/kg ofloxacin. 10^9 PFU/mouse phage was used.
Increasing Survival of Mice Infected with Bacteria. To determine the clinical relevance of antibiotic-enhancing phage in vivo, the inventors applied the engineered phage φlexA3 with ofloxacin to prevent death in mice infected with bacteria. Mice were injected with E. coli EMG2 intraperitoneally 1 hour prior to receiving different intravenous treatments (FIG. 3A). Eighty percent of mice that received φlexA3 with ofloxacin survived, compared with 50% and 20% for mice that received φunmod plus ofloxacin or ofloxacin alone, respectively (FIG. 3B).

E. coli EMG2 [3] = assay: Minimum inhibitory concentration of ofloxacin; format: cell-based; details: Escherichia coli, data not shown
E. coli EMG2 [4] = assay: Antibiotic resistance assay; format: cell-based; details: 30 ng/mL ofloxacin 24 hours; phage (10^9 PFU/mL) added for the last 12 hours where named
Protocol: Antibiotic resistance assay. To analyze the effect of subinhibitory concentrations of ofloxacin on the development of antibiotic-resistant mutants, the inventors grew 1:10^8 dilutions of overnight EMG2 in LB media containing either no ofloxacin (FIG. 4) or 30 ng/mL ofloxacin (FIG. 7). After 12 hours of growth at 37° C. and 300 rpm, the inventors split the cells grown in no ofloxacin into 100 uL aliquots with no ofloxacin in 60 wells in 96-well plate format (Costar 3370; Fisher Scientific, Pittsburgh, Pa.). The inventors also split the cells grown in 30 ng/mL ofloxacin into 100 uL aliquots in 60 wells with either no phage and 30 ng/mL ofloxacin (FIG. 7B), φunmod phage and 30 ng/mL ofloxacin (FIG. 7C), and φlexA3 and 30 ng/mL ofloxacin (FIG. 7D) in 96-well plate format. The inventors placed the 96-well plates in 37° C. and 300 rpm with plastic bags to minimize evaporation. After 12 hours of treatment, the inventors plated cultures from each well on LB agar+100 ng/mL ofloxacin to select for mutants that developed resistance against ofloxacin. To compare results, the inventors plotted histograms of the number of resistant bacteria found in each well in FIGS. 4 and 8.

E. coli EMG2 [5] = assay: Ofloxacin killing assay; format: cell-based; details: 60 ng/mL ofloxacin, no phage, 6 hours of treatment
Protocol: Determination of colony forming units. To obtain CFU counts, 150 μL of relevant cultures were collected, washed with 1× phosphate-buffered saline (PBS), recollected, and resuspended in 150 μL of 1×PBS. Serial dilutions were performed with 1×PBS and sampled on LB agar plates. LB agar plates were incubated at 37° C. overnight before counting.
Ofloxacin killing assay. To determine the adjuvant effect of engineered phage (FIG. 1B, FIG. 3A and FIG. 3D), the inventors grew 1:500 dilutions of overnight EMG2 cells for 3 hours and 30 minutes at 37° C. and 300 rpm to late-exponential phase and determined initial CFUs. Then, the inventors added 60 ng/mL ofloxacin by itself or in combination with 10^8 PFU/mL bacteriophage (unmodified φunmod or engineered φLexA, φSoxR, φcsr, φompF, or φCsr-ompF phage) and treated at 37° C. and 300 rpm. At indicated time points, the inventors determined CFUs as described above. Mean killing (Δlog10 (CFU/mL)) was determined by subtracting mean initial log10 (CFU/mL) from mean log10 (CFU/mL) after treatment in order to compare data from different experiments. This protocol was replicated with E. coli RFS289 to determine the ofloxacin-enhancing effect of engineered φlexA3 phage against antibiotic-resistant bacteria (FIG. 2). […]

CN[C@H](CC(C)C)C(=O)N[C@H]1C(=O)N[C@@H](CC(N)=O)C(=O)N[C@H]2C(=O)N[C@H]3C(=O)N[C@H](C(=O)N[C@H](C(=O)O)c4cc(O)cc(O)c4-c4cc3ccc4O)[C@H](O)c3ccc(c(Cl)c3)Oc3cc2cc(c3O[C@@H]2O[C@H](CO)[C@@H](O)[C@H](O)[C@H]2O[C@H]2C[C@](C)(N)[C@H](O)[C@H](C)O2)Oc2ccc(cc2Cl)[C@H]1O [Vancomycin]
MIC Plating ([1]; BW25113 starting strain): 500 µg/mL (≈ 345 µM) | MIC Plating ([1]; dksA knockout): 125 µg/mL (≈ 86.3 µM) | MIC Plating ([1]; elaD knockout): 150 µg/mL (≈ 104 µM) | MIC Plating ([1]; envC knockout): 150 µg/mL (≈ 104 µM) | MIC Plating ([1]; envZ knockout): 150 µg/mL (≈ 104 µM) | MIC Plating ([1]; fepC knockout): 150 µg/mL (≈ 104 µM) | MIC Plating ([1]; hns knockout): 150 µg/mL (≈ 104 µM) | MIC Plating ([1]; hscB knockout): 150 µg/mL (≈ 104 µM) | MIC Plating ([1]; lptB knockout): 150 µg/mL (≈ 104 µM) | MIC Plating ([1]; msbB knockout): 150 µg/mL (≈ 104 µM) | MIC Plating ([1]; oxyR knockout): 150 µg/mL (≈ 104 µM) | MIC Plating ([1]; pal knockout): 100 µg/mL (≈ 69 µM) | MIC Plating ([1]; pgmB knockout): 100 µg/mL (≈ 69 µM) | MIC Plating ([1]; proW knockout): 150 µg/mL (≈ 104 µM) | MIC Plating ([1]; rimK knockout): 150 µg/mL (≈ 104 µM) | MIC Plating ([1]; rpmJ knockout): 150 µg/mL (≈ 104 µM) | MIC Plating ([1]; rrmJ knockout): 150 µg/mL (≈ 104 µM) | MIC Plating ([1]; skp knockout): 75 µg/mL (≈ 51.8 µM) | MIC Plating ([1]; smpA knockout): 100 µg/mL (≈ 69 µM) | MIC Plating ([1]; surA knockout): 8 µg/mL (≈ 5.52 µM) | MIC Plating ([1]; tonB knockout): 125 µg/mL (≈ 86.3 µM) | MIC Plating ([1]; tusC knockout): 150 µg/mL (≈ 104 µM) | MIC Plating ([1]; tusD knockout): 150 µg/mL (≈ 104 µM) | MIC Plating ([1]; xapR knockout): 100 µg/mL (≈ 69 µM) | MIC Plating ([1]; ybgF knockout): 100 µg/mL (≈ 69 µM) | MIC Plating ([1]; ycbR knockout): 150 µg/mL (≈ 104 µM) | MIC Plating ([1]; yciM knockout): 100 µg/mL (≈ 69 µM) | MIC Plating ([1]; ydfP knockout): 150 µg/mL (≈ 104 µM) | MIC Plating ([1]; ydjI knockout): 100 µg/mL (≈ 69 µM) | MIC Plating ([1]; yfgC knockout): 150 µg/mL (≈ 104 µM) | MIC Plating ([1]; yfgL knockout): 150 µg/mL (≈ 104 µM) | MIC Plating ([1]; yhdP knockout): 125 µg/mL (≈ 86.3 µM) | MIC E test (BW25113 gene knockouts; lptB knockout): 2.0 µg/mL (≈ 1.38 µM) | MIC E test (BW25113 gene knockouts; pal knockout): 96 µg/mL (≈ 66.2 µM) | MIC E test (BW25113 gene knockouts; smpA knockout): 70 µg/mL (≈ 48.3 µM) | MIC E test (BW25113 gene knockouts; surA knockout): 4 µg/mL (≈ 2.76 µM)

CC1COc2c(N3CCN(C)CC3)c(F)cc3c(=O)c(C(=O)O)cn1c23 (stereo not shown) [ofloxacin]
mice that survived (E. coli EMG2 [2]): 20% | MIC (E. coli EMG2 [3]): 0.06 µg/mL (≈ 0.166 µM) | number of mutants resistant to 100 ng/mL ofloxacin (median of 60 samples) (E. coli EMG2 [4]): 1592 | reduction of bacteria exposed only to ofloxacin (E. coli EMG2 [5]): about 1.7 log10 (CFU/mL)
